These are literature values, as cited in patent EP3094315B1, “PHARMACEUTICAL COMPOSITION COMPRISING ARIPIPRAZOLE OR SALT THEREOF” (Pharmathen S.A., priority 2014, dated 2015).

Molecules are shown by their SMILES. Where two headings read alike, the source gives them in different places.

Take `O=C1CCc2ccc(OCCCCN3CCN(c4cccc(Cl)c4Cl)CC3)cc2N1` [Aripiprazole, 7-{4-[4-(2,3-dichlorophenyl)piperazin-1-yl]butoxy}-3,4-dihydroquinolin-2(1H)-one]: the solubility result runs as follows: (in N,N-dimethyl formamide) “freely soluble”; (in dichloromethane) “freely soluble”; (in water) “practically insoluble”.
